Source: patent US20260109699A1, “AZOLE DERIVATIVES AS SHP2 INHIBITORS” (IRBM S.P.A., priority 2022, published 2026)

Experiments:
[1] = target: T1, SHP-2 enzyme (Met1-Leu525), SHP2wt (Homo sapiens, UniProt Q06124); test: SHP2 inhibition enzymatic assay; type: biochemical; details: 0.5 nM SHP-2 activated by 500 nM IRS1 peptide, 75 μM DiFMUP substrate
T1 construct: synthetized by Origene, Met1-Leu525, cat #TP750155; purchased Origene TP750155
T1 sequence (Q06124 1-525): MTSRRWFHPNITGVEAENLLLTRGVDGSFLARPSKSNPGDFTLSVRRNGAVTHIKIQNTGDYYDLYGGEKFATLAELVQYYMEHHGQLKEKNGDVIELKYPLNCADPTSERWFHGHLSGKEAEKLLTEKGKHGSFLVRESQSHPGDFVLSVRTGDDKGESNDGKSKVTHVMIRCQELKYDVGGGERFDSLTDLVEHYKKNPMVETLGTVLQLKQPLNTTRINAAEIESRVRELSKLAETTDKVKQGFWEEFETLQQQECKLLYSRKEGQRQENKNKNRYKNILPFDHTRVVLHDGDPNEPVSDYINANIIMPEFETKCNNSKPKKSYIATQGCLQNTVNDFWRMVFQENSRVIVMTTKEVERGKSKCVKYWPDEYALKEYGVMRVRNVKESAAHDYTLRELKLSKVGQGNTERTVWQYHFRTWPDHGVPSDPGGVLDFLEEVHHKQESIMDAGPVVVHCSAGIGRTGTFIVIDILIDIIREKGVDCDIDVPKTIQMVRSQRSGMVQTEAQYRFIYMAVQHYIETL
Description: The assay was performed as described in YP Chen et al, Nature (535) 2016. Assay volume of 20 μL/well was assembled in 384 well black polystyrene low-binding microplates (Greiner), using the following buffer: 60 mM HEPES pH 7.2, 75 mM NaCl, 75 mM KCl, 1 mM EDTA pH 8, 0.05% tween-20, 5 mM DTT. The SHP-2 enzyme (synthetized by Origene, Met1-Leu525, cat #TP750155) was used at a final concentration of 0.5 nM. The enzyme was activated by 500 nM IRS1 peptide (sequence: H2N-LN(pY)IDLDLV(dPEG8)LST(pY)ASINFQK-amide; Wang et al., iScience 25,104009, Apr. 15, 2022, https://doi.org/10.1016/j.isci.2022.104009) and incubated with 75 μM DiFMUP (Sigma) as substrate.
Briefly, DMSO serially diluted testing compounds were transferred to the bottom of the assay plate. SHP2 was then added together with the IRS1 peptide 30 min post incubation, the DiFMUP substrate was added to the reaction and incubated 30 min at rt. Finally 5 μL of 160 μM bpV (potassium bisperoxo[1,10-phenanthroline]oxovanadate [V], Sigma) were added to stop and quench the reaction. The fluorescence was detected by a microplate reader (Envision, PerkinElmer) according to the DiFMUP excitation and emission wavelength. The lower the fluorescence the higher the SHP2 inhibition.
The activity of each compound dilution was calculated as percentage of inhibition between vehicle (DMSO, 0% inhibition) and no enzyme (100% inhibition). The percentage inhibition is fitted against the compound dilutions with a four-parameter logistic regression. The inflection point (i.e. the concentration at which half-maximal inhibition is achieved) is the IC50.
Legend: A indicates IC50 less or equal to 0.05 μM; B indicates IC50 greater than 0.05 μM and lower or equal to 0.3 μM.

[2] = tested on: phospho-ERK1/2 (Thr202/Tyr204); test: Phospho-ERK cellular assay; type: cell-based; details: Homo sapiens; KYSE-520 cells, 2 h at 37° C, TR-FRET; read-out: pERK IC50
Description: ERK phosphorylation was detected using the “Advanced phospho-ERK1/2 (Thr202/Tyr204)” TR-FRET kit (Cisbio, Cat #64AERPEG/H), following the manufacturer reagents and instructions.
Briefly, 20.000/well KYSE-520 cells (DSMZ ACC 371) were plated in 6 μL RPMI-1640 (Invitrogen) growth medium, into 384 white low-volume high base TC microplates (Greiner). After an overnight incubation, cells were treated with DMSO serial diluted compounds and incubated for 2 h at 37° C. After incubation, 2 μL/well of 4×Lysis Buffer (Cisbio 64KL1FDF), were added and incubated with cells for 30 min on gentle shaking. Finally, lysates were added with 2 μL/well of Eu cryptate (donor) and D2 (acceptor) conjugated antibodies (as provided by the Cisbio kit #64AERPEG/H) diluted 1:100 in Detection Buffer (as provided by the Cisbio kit #64AERPEG/H). Plates were then sealed and incubated at rt in the dark. After an overnight incubation, the TR-FRET signal was detected on a suitable reader (Envision, PerkinElmer).
The lower the TR-FRET signal the higher the higher the SHP2 inhibition in cells.
The activity of each compound dilution was calculated as percentage between vehicle DMSO treated cells and no cells, 0% inhibition and 100% inhibition respectively. The percentage activity is fitted against the compound dilutions with a four-parameter logistic regression. The inflection point (i.e. the concentration at which half-maximal inhibition is achieved) is the IC50.
Legend: “+” indicates IC50 equal or higher than 0.5 μM; “++” indicates IC50 less than 0.5 μM and higher or equal to 0.1 μM; “+++” indicates IC50 less than 0.1 μM.

Row | SMILES | IC50 [1] | IC50 [2]
1 | Cc1nc(N2CCC3(CC2)Cn2ncc(F)c2[C@H]3N)cc(=O)n1-c1cccc(Cl)c1Cl (atropisomer, axis not shown) [Example 1, (S)-6-(4′-amino-3′-fluoro-4′H,6′H-spiro[piperidine-4,5′-pyrrolo[1,2-b]pyrazol]-1-yl)-3-(2,3-dichlorophenyl)-2-methylpyrimidin-4(3H)-one] | ≤ 50 nM | 100 to 500 nM
2 | Cc1nc(N2CCC3(CC2)Cn2nccc2[C@H]3N)cnc1Sc1ccnc(C)c1F [Example 4, (S)-1-(5-((3-fluoro-2-methylpyridin-4-yl)thio)-6-methylpyrazin-2-yl)-4′H,6′H-spiro[piperidine-4,5′-pyrrolo[1,2-b]pyrazol]-4′-amine] | ≤ 50 nM | 100 to 500 nM
3 | Cn1c(N2CCC3(CC2)Cn2nccc2[C@H]3N)ncc(-c2cccc(F)c2F)c1=O [Example 5, (S)-2-(4′-amino-4′H,6′H-spiro[piperidine-4,5′-pyrrolo[1,2-b]pyrazol]-1-yl)-5-(2,3-difluorophenyl)-3-methylpyrimidin-4(3H)-one] | 50 to 300 nM | > 500 nM
4 | Cc1nc(N2CCC3(CC2)Cn2nccc2[C@H]3N)cnc1Sc1cccc(Cl)c1Cl [Example 6, (S)-1-(5-((2,3-dichlorophenyl)thio)-6-methylpyrazin-2-yl)-4′H,6′H-spiro[piperidine-4,5′-pyrrolo[1,2-b]pyrazol]-4′-amine] | ≤ 50 nM | 100 to 500 nM
5 | N[C@@H]1c2ccnn2CC12CCN(c1cnc(Oc3ccc(F)cc3)cn1)CC2 [Example 7, (S)-1-(5-(4-fluorophenoxy)pyrazin-2-yl)-4′H,6′H-spiro[piperidine-4,5′-pyrrolo[1,2-b]pyrazol]-4′-amine] | ≤ 50 nM | < 100 nM
6 | N[C@@H]1c2ccnn2CC12CCN(c1cnc3nc(-c4cccc(F)c4F)ccc3n1)CC2 [Example 8, (S)-1-(6-(2,3-difluorophenyl)pyrido[2,3-b]pyrazin-2-yl)-4′H,6′H-spiro[piperidine-4,5′-pyrrolo[1,2-b]pyrazol]-4′-amine] | ≤ 50 nM | > 500 nM
7 | N[C@@H]1c2ccnn2CC12CCN(c1cnc3nc(-c4cccc(Cl)c4Cl)ccc3n1)CC2 [Example 9, (S)-1-(6-(2,3-dichlorophenyl)pyrido[2,3-b]pyrazin-2-yl)-4′H,6′H-spiro[piperidine-4,5′-pyrrolo[1,2-b]pyrazol]-4′-amine] | ≤ 50 nM | > 500 nM
8 | Cn1c(N2CCC3(CC2)Cn2nccc2[C@H]3N)ccc(-c2cccc(Cl)c2Cl)c1=O [Example 11, (S)-6-(4′-amino-4′H,6′H-spiro[piperidine-4,5′-pyrrolo[1,2-b]pyrazol]-1-yl)-3-(2,3-dichlorophenyl)-1-methylpyridin-2(1H)-one] | 50 to 300 nM | > 500 nM
9 | Cc1cccc(-c2ncc3c(N4CCC5(CC4)Cn4nccc4[C@H]5N)nccn23)c1F [Example 12, (S)-1-(3-(2-fluoro-3-methylphenyl)imidazo[1,5-a]pyrazin-8-yl)-4′H,6′H-spiro[piperidine-4,5′-pyrrolo[1,2-b]pyrazol]-4′-amine] | ≤ 50 nM | 100 to 500 nM
10 | N[C@@H]1c2ccnn2CC12CCN(c1cnc(Sc3ccc(F)cc3)cn1)CC2 [Example 13, (S)-1-(5-((4-fluorophenyl)thio)pyrazin-2-yl)-4′H,6′H-spiro[piperidine-4,5′-pyrrolo[1,2-b]pyrazol]-4′-amine] | ≤ 50 nM | < 100 nM
11 | N[C@@H]1c2ccnn2CC12CCN(c1nccn3c(-c4cccc(F)c4Cl)ncc13)CC2 [Example 14, (S)-1-(3-(2-chloro-3-fluorophenyl)imidazo[1,5-a]pyrazin-8-yl)-4′H,6′H-spiro[piperidine-4,5′-pyrrolo[1,2-b]pyrazol]-4′-amine] | ≤ 50 nM | 100 to 500 nM
12 | Cc1c(Cl)cccc1-c1ncc2c(N3CCC4(CC3)Cn3nccc3[C@H]4N)nccn12 [Example 15, (S)-1-(3-(3-chloro-2-methylphenyl)imidazo[1,5-a]pyrazin-8-yl)-4′H,6′H-spiro[piperidine-4,5′-pyrrolo[1,2-b]pyrazol]-4′-amine] | ≤ 50 nM | > 500 nM
13 | Cc1ccc(F)c(-c2ncc3c(N4CCC5(CC4)Cn4nccc4[C@H]5N)nccn23)c1Cl [Example 16, (S)-1-(3-(2-chloro-6-fluoro-3-methylphenyl)imidazo[1,5-a]pyrazin-8-yl)-4′H,6′H-spiro[piperidine-4,5′-pyrrolo[1,2-b]pyrazol]-4′-amine] | 50 to 300 nM | > 500 nM
14 | Cc1nc(Sc2cccc(Cl)c2Cl)cnc1N1CCC2(CC1)Cn1nccc1[C@H]2N [Example 17, (S)-1-(5-((2,3-dichlorophenyl)thio)-3-methylpyrazin-2-yl)-4′H,6′H-spiro[piperidine-4,5′-pyrrolo[1,2-b]pyrazol]-4′-amine] | ≤ 50 nM | 100 to 500 nM
15 | N[C@@H]1c2ccnn2CC12CCN(c1cnc(Sc3ccc(OC(F)(F)F)cc3)cn1)CC2 [Example 18, (S)-1-(5-((4-(trifluoromethoxy)phenyl)thio)pyrazin-2-yl)-4′H,6′H-spiro[piperidine-4,5′-pyrrolo[1,2-b]pyrazol]-4′-amine] | ≤ 50 nM | 100 to 500 nM
16 | N[C@@H]1c2ccnn2CC12CCN(c1cnc(Sc3ccc(C(F)(F)F)cc3)cn1)CC2 [Example 19, (S)-1-(5-((4-(trifluoromethyl)phenyl)thio)pyrazin-2-yl)-4′H,6′H-spiro[piperidine-4,5′-pyrrolo[1,2-b]pyrazol]-4′-amine] | ≤ 50 nM | 100 to 500 nM
17 | N[C@@H]1c2ccnn2CC12CCN(c1cnc(Sc3cccc(Cl)c3)cn1)CC2 [Example 20, (S)-1-(5-((3-chlorophenyl)thio)pyrazin-2-yl)-4′H,6′H-spiro[piperidine-4,5′-pyrrolo[1,2-b]pyrazol]-4′-amine] | ≤ 50 nM | < 100 nM
18 | N[C@@H]1c2ccnn2CC12CCN(c1cnc(Sc3ccc(Cl)cc3Cl)cn1)CC2 [Example 22, (S)-1-(5-((2,4-dichlorophenyl)thio)pyrazin-2-yl)-4′H,6′H-spiro[piperidine-4,5′-pyrrolo[1,2-b]pyrazol]-4′-amine] | ≤ 50 nM | < 100 nM
19 | N[C@@H]1c2ccnn2CC12CCN(c1cnc(Sc3ccc(Cl)c(Cl)c3)cn1)CC2 [Example 23, (S)-1-(5-((3,4-dichlorophenyl)thio)pyrazin-2-yl)-4′H,6′H-spiro[piperidine-4,5′-pyrrolo[1,2-b]pyrazol]-4′-amine] | ≤ 50 nM | 100 to 500 nM
20 | N[C@@H]1c2ccnn2CC12CCN(c1cnc(Sc3ccccc3)cn1)CC2 [Example 24, (S)-1-(5-(phenylthio)pyrazin-2-yl)-4′H,6′H-spiro[piperidine-4,5′-pyrrolo[1,2-b]pyrazol]-4′-amine] | ≤ 50 nM | < 100 nM
